Results reported in ChEMBL document CHEMBL1132484, “New alpha-substituted succinate-based hydroxamic acids as TNFalpha convertase inhibitors” (J Med Chem, 1999).

How the values were obtained:
[1] = target: T1, Disintegrin and metalloproteinase domain-containing protein 17 (Homo sapiens, UniProt P78536); test: Inhibition of TNF(tumor necrosis factor) in human blood; assay type: functional
[2] = target: T1, Disintegrin and metalloproteinase domain-containing protein 17; test: Inhibitory activity against Tumor necrosis factor alpha-converting enzyme (TACE) in blood.; assay type: tissue-based
Interstitial collagenase = target: T2, Interstitial collagenase (Homo sapiens, UniProt P03956); test: Inhibitory activity against MMP-1 (Matrix metalloprotease-1)
T2 sequence (P03956 whole entry): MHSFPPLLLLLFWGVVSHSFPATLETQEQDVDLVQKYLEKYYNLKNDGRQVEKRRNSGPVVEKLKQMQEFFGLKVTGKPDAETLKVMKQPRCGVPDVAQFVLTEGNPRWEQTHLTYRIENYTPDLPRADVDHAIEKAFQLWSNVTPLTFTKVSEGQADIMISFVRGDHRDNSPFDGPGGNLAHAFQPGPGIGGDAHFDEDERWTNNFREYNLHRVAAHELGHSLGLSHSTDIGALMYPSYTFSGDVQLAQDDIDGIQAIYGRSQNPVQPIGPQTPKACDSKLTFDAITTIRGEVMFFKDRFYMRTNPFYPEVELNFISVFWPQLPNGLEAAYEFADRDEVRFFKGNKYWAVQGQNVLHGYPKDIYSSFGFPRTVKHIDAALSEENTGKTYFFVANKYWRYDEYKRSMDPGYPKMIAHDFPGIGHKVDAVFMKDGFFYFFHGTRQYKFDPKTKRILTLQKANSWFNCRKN

T1 sequence (P78536 whole entry, the tested form may be a part): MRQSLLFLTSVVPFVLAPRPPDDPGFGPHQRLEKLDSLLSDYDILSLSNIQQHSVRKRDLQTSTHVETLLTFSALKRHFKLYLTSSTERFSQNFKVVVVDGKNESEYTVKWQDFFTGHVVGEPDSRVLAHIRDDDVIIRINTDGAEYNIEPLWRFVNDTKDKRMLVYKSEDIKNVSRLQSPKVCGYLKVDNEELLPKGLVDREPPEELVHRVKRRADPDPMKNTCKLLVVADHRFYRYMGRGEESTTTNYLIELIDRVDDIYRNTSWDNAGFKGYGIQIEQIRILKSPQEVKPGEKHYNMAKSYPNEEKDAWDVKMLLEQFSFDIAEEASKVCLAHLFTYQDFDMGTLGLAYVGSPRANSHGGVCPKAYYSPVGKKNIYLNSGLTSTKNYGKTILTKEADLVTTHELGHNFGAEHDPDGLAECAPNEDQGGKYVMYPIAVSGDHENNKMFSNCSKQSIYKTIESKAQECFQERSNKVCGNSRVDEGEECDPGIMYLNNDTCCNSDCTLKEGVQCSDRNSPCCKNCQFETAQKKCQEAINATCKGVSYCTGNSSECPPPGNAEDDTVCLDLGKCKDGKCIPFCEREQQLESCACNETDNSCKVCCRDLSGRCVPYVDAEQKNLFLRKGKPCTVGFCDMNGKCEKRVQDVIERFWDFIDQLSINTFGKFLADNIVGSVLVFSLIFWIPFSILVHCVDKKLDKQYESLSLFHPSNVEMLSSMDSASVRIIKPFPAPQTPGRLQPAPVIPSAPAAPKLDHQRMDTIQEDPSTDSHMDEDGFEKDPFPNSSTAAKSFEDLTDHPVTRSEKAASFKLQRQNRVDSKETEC

Row | Compound | IC50 [1] [nM] | IC50 [2] [nM] | IC50 (Interstitial collagenase) [nM]
1 | CNC(=O)[C@@H](NC(=O)[C@H](CC(C)C)[C@H](NCc1ccc2ccccc2n1)C(=O)NO)C(C)(C)C | 5700 | 1 | 
2 | CNC(=O)[C@@H](NC(=O)C(CC(C)C)C(C(=O)NO)N(Cc1ccccc1)S(=O)(=O)c1cccc2cccnc12)C(C)(C)C (single isomer, unassigned) |  | 85 | 
3 | CCCN([C@H](C(=O)NO)[C@@H](CC(C)C)C(=O)N[C@H](C(=O)NC)C(C)(C)C)S(=O)(=O)c1cccc2cccnc12 |  | 10 | 
4 | CNC(=O)[C@@H](NC(=O)[C@H](CC(C)C)[C@H](NS(=O)(=O)c1cccc2ccccc12)C(=O)NO)C(C)(C)C | 3100 | 1.2 | 
5 | CNC(=O)[C@@H](NC(=O)[C@H](CC(C)C)[C@H](NS(=O)(=O)c1cccs1)C(=O)NO)C(C)(C)C | 2800 | 1.5 | 
6 | CCS[C@H](C(=O)NO)[C@@H](CC(C)C)C(=O)N[C@H](C(=O)NC)C(C)(C)C | 5600 | 1.5 | 
7 | CNC(=O)[C@@H](NC(=O)C(CC(C)C)C(C(=O)NO)N(C)S(=O)(=O)c1ccccc1)C(C)(C)C (single isomer, unassigned) | 3000 | 0.61 | 1.5
8 | CNC(=O)[C@@H](NC(=O)[C@H](CC(C)C)[C@H](NC(=O)c1cccnc1)C(=O)NO)C(C)(C)C |  | 22 | 
9 | CNC(=O)[C@@H](NC(=O)[C@H](CC(C)C)[C@H](Sc1ccc(C#N)cc1)C(=O)NO)C(C)(C)C | 3300 | 0.63 | 
10 | CNC(=O)[C@@H](NC(=O)[C@H](CC(C)C)[C@H](Sc1ccc(S(C)(=O)=O)cc1)C(=O)NO)C(C)(C)C | 2100 | 1.25 | 
11 | CNC(=O)[C@@H](NC(=O)[C@H](CC(C)C)[C@H](OCc1ccc2nc(C)nc(O)c2c1)C(=O)NO)C(C)(C)C | 2400 | 0.43 | 
12 | CNC(=O)[C@@H](NC(=O)[C@H](CC(C)C)[C@H](OCc1cccc2ccccc12)C(=O)NO)C(C)(C)C | 7600 | 0.33 | 
13 | CNC(=O)[C@@H](NC(=O)[C@H](CC(C)C)[C@H](NC(=O)c1cccc2cccnc12)C(=O)NO)C(C)(C)C | 8000 | 2 | 2.2
14 | CNC(=O)[C@@H](NC(=O)[C@H](CC(C)C)[C@H](NS(=O)(=O)c1c(C(C)C)cc(C(C)C)cc1C(C)C)C(=O)NO)C(C)(C)C |  | 13 | 
15 | CNC(=O)[C@@H](NC(=O)[C@H](CC(C)C)[C@H](NS(=O)(=O)CCc1ccncc1)C(=O)NO)C(C)(C)C | 700 | 1.3 | 
16 | CNC(=O)[C@@H](NC(=O)C(CC(C)C)C(NS(=O)(=O)c1ccccc1)C(=O)NO)C(C)(C)C (single isomer, unassigned) | 1300 | 1.5 | 
17 | CNC(=O)[C@@H](NC(=O)[C@H](CC(C)C)[C@H](NCCCSC)C(=O)NO)C(C)(C)C | 4600 | 1.3 | 
18 | CNC(=O)[C@@H](NC(=O)[C@H](CC(C)C)[C@H](OC)C(=O)NO)C(C)(C)C | 5000 | 1.5 | 
19 | CNC(=O)[C@@H](NC(=O)[C@H](CC(C)C)[C@H](OCc1ccc2ccccc2c1)C(=O)NO)C(C)(C)C | 7300 | 0.6 | 

Row | Compound | IC50 [1] [nM] | IC50 [2] [nM] | IC50 (Interstitial collagenase) [nM]
20 | CNC(=O)[C@@H](NC(=O)[C@H](CC(C)C)[C@H](NCc1ccc2ccccc2c1)C(=O)NO)C(C)(C)C | 6700 | 0.57 | 
21 | CNC(=O)[C@@H](NC(=O)[C@H](CC(C)C)[C@H](NS(=O)(=O)c1cccnc1)C(=O)NO)C(C)(C)C | 3800 | 2.1 | 
22 | CNC(=O)[C@@H](NC(=O)[C@H](CC(C)C)[C@@H](Sc1ccccc1)C(=O)NO)C(C)(C)C |  | 1 | 
23 | CNC(=O)[C@@H](NC(=O)[C@H](CC(C)C)[C@H](OCCc1ccc2sc(C)nc2c1)C(=O)NO)C(C)(C)C | 3500 | 0.21 | 
24 | CNC(=O)[C@@H](NC(=O)C(CC(C)C)C(NS(=O)(=O)c1ccc(Br)cc1)C(=O)NO)C(C)(C)C (single isomer, unassigned) | 4400 | 1.4 | 
25 | CNC(=O)[C@@H](NC(=O)[C@H](CC(C)C)[C@@H](C(=O)NO)N1CCCC1)C(C)(C)C | 6100 | 2.8 | 
26 | CNC(=O)[C@@H](NC(=O)[C@H](CC(C)C)[C@H](Sc1ccc2c(c1)CCC(=O)N2C)C(=O)NO)C(C)(C)C | 6600 | 1.4 | 
27 | CNC(=O)[C@@H](NC(=O)[C@H](CC(C)C)[C@H](OCc1ccc2oc(=O)ccc2c1)C(=O)NO)C(C)(C)C | 3600 | 0.79 | 
28 | CC1(C)SCCN(S(=O)(=O)c2ccc(Oc3ccncc3)cc2)[C@H]1C(=O)NO [PRINOMASTAT] | 16600 | 5.5 | 
29 | CNC(=O)[C@@H](NC(=O)[C@H](CC(C)C)[C@H](Sc1ccc(F)cc1Cl)C(=O)NO)C(C)(C)C | 11000 | 1.1 | 
30 | CNC(=O)[C@@H](NC(=O)[C@H](CC(C)C)[C@H](NS(=O)(=O)c1ccc2ccccc2c1)C(=O)NO)C(C)(C)C | 1200 | 0.66 | 
31 | CNC(=O)[C@@H](NC(=O)[C@H](CC(C)C)[C@H](NS(=O)(=O)/C=C/c1ccccc1)C(=O)NO)C(C)(C)C | 770 | 0.54 | 
32 | CNC(=O)[C@@H](NC(=O)[C@H](CC(C)C)[C@H](NC(=O)c1ccc2ccccc2c1)C(=O)NO)C(C)(C)C | > 20000 | 3.3 | 
33 | CNC(=O)[C@@H](NC(=O)C(CC(C)C)C(NS(=O)(=O)c1cc(Cl)cc(Cl)c1)C(=O)NO)C(C)(C)C (single isomer, unassigned) | 11300 | 1 | 
34 | CNC(=O)[C@@H](NC(=O)[C@H](CC(C)C)[C@H](NC(=O)c1ccc2ncccc2c1)C(=O)NO)C(C)(C)C |  | 9.5 | 
35 | CNC(=O)[C@@H](NC(=O)C(CC(C)C)C(NC(C)=O)C(=O)NO)C(C)(C)C (single isomer, unassigned) |  | 13 | 
36 | CNC(=O)[C@@H](NC(=O)[C@H](CCCOCc1ccccc1)[C@H](OCc1ccc2nc(C)nc(O)c2c1)C(=O)NO)C(C)(C)C |  | 12 | 330
37 | CNC(=O)[C@@H](NC(=O)C(CC(C)C)C(NCc1ccccc1)C(=O)NO)C(C)(C)C (single isomer, unassigned) | 6100 | 2.8 | 
38 | CNC(=O)[C@@H](NC(=O)[C@H](CC(C)C)[C@H](Sc1cccc(C(C)(C)C#N)c1)C(=O)NO)C(C)(C)C | 2800 | 1.6 | 

Row | Compound | IC50 [1] [nM] | IC50 [2] [nM] | IC50 (Interstitial collagenase) [nM]
39 | CNC(=O)[C@@H](NC(=O)[C@H](CC(C)C)[C@H](NS(=O)(=O)c1ccc2c(c1)CC(=O)N2)C(=O)NO)C(C)(C)C | 1500 | 2.8 | 
40 | CNC(=O)[C@@H](NC(=O)C(CC(C)C)C(NS(=O)(=O)c1ccc(F)cc1Cl)C(=O)NO)C(C)(C)C (single isomer, unassigned) |  | 9.7 | 
41 | CNC(=O)[C@@H](NC(=O)C(CC(C)C)C(NC(=O)c1ccccc1)C(=O)NO)C(C)(C)C (single isomer, unassigned) |  | 9 | 
42 | CNC(=O)[C@@H](NC(=O)[C@H](CC(C)C)[C@H](OCc1cccc2nccnc12)C(=O)NO)C(C)(C)C | 7600 | 1.1 | 
43 | CNC(=O)[C@@H](NC(=O)[C@H](CC(C)C)[C@H](NS(=O)(=O)c1cccc2c(=O)[nH]cnc12)C(=O)NO)C(C)(C)C | 4900 | 3.4 | 
44 | CNC(=O)[C@@H](NC(=O)[C@H](CC(C)C)[C@H](OCc1cc2ccccc2n(C)c1=O)C(=O)NO)C(C)(C)C | 2350 | 0.44 | 
45 | CNC(=O)[C@@H](NC(=O)C(CC(C)C)C(NS(=O)(=O)c1cnc[nH]1)C(=O)NO)C(C)(C)C (single isomer, unassigned) |  | 9 | 
46 | CNC(=O)[C@@H](NC(=O)[C@H](CC(C)C)[C@H](Sc1ccc(OC)c(OC)c1)C(=O)NO)C(C)(C)C |  | 1.2 | 
47 | CNC(=O)[C@@H](NC(=O)[C@H](CC(C)C)[C@H](NS(C)(=O)=O)C(=O)NO)C(C)(C)C | 1600 | 2.2 | 
48 | CNC(=O)[C@@H](NC(=O)C(CC(C)C)C(NS(=O)(=O)c1ccc(NC(C)=O)cc1)C(=O)NO)C(C)(C)C (single isomer, unassigned) | 1200 | 1.3 | 
49 | CNC(=O)[C@H](Cc1ccccc1)NC(=O)[C@H](CC(C)C)[C@H](CSc1ccccc1)C(=O)NO | 5300 | 1.8 | 
50 | CNC(=O)[C@@H](NC(=O)[C@H](CC(C)C)[C@H](Sc1cc(Cl)cc(Cl)c1)C(=O)NO)C(C)(C)C | 4900 | 0.42 | 
51 | CNC(=O)[C@@H](NC(=O)C(CC(C)C)C(OCc1cc2c(=O)[nH]c(C)nc2cc1Br)C(=O)NO)C(C)(C)C (single isomer, unassigned) | 4300 | 0.33 | 
52 | CNC(=O)[C@@H](NC(=O)[C@H](CC(C)C)[C@H](NS(=O)(=O)c1ccc(C(=O)O)cc1)C(=O)NO)C(C)(C)C | 4400 | 3.2 | 
53 | CNC(=O)[C@@H](NC(=O)[C@H](CC(C)C)[C@H](OCc1cccc2cccnc12)C(=O)NO)C(C)(C)C | 8200 | 0.4 | 
54 | CNC(=O)[C@@H](NC(=O)[C@H](CC(C)C)[C@H](NS(=O)(=O)c1ccc2c(c1)CCC(=O)N2C)C(=O)NO)C(C)(C)C | 3000 | 2.9 | 
55 | CNC(=O)[C@@H](NC(=O)[C@H](CC(C)C)[C@H](SC)C(=O)NO)C(C)(C)C | 2300 | 1.6 | 
56 | CNC(=O)[C@@H](NC(=O)[C@H](CC(C)C)[C@H](Sc1ccccc1)C(=O)NO)C(C)(C)C |  | 188 | 
57 | CNC(=O)[C@@H](NC(=O)C(CC(C)C)C(NS(=O)(=O)c1ccccc1C#N)C(=O)NO)C(C)(C)C (single isomer, unassigned) |  | 17 | 
